pKd: −log10 of the molar value.
Assays:
hLPYK [1] = target: T1, hLPYK (Homo sapiens, UniProt P30613); test: enzyme kinetics, allosteric linkage analysis; type: biochemical; conditions: allosteric inhibitor site; effector binding in absence of PEP; read-out: Kix-Ala
T1 construct: gene PKLR; full-length liver isozyme; homotetramer; purified or partially purified
Text: enzyme kinetics, allosteric linkage analysis on hLPYK | (ii) Kix-Ala, the binding of Ala

hLPYK [2] = target: T1, hLPYK; test: enzyme kinetics, allosteric linkage analysis; type: biochemical; conditions: allosteric activator site; effector binding in absence of PEP
rM1PYK = target: T2, rM1PYK (Oryctolagus cuniculus, UniProt P11974); test: X-ray crystal structure, […] Å; type: binding; conditions: active site of some subunits; may stem from the crystallisation medium
T2 construct: gene PKM; rabbit muscle M1 isozyme; homotetramer; crystal structures
T2 sequence (P11974 2-531): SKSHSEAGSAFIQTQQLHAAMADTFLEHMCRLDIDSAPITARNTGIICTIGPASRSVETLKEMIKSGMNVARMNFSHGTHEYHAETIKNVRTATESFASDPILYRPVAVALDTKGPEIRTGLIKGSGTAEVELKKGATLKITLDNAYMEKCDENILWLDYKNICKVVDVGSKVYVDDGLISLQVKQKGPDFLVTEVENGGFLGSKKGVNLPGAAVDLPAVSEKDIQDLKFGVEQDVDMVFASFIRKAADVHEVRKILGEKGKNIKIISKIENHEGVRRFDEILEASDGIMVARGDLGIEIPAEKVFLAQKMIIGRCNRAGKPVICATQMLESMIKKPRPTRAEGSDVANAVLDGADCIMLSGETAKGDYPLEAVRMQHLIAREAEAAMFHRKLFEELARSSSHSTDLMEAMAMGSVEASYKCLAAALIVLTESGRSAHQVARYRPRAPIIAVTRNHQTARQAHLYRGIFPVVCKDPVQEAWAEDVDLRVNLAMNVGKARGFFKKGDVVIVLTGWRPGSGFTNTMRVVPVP

T1 sequence (P30613 1-543 isoform P30613-2): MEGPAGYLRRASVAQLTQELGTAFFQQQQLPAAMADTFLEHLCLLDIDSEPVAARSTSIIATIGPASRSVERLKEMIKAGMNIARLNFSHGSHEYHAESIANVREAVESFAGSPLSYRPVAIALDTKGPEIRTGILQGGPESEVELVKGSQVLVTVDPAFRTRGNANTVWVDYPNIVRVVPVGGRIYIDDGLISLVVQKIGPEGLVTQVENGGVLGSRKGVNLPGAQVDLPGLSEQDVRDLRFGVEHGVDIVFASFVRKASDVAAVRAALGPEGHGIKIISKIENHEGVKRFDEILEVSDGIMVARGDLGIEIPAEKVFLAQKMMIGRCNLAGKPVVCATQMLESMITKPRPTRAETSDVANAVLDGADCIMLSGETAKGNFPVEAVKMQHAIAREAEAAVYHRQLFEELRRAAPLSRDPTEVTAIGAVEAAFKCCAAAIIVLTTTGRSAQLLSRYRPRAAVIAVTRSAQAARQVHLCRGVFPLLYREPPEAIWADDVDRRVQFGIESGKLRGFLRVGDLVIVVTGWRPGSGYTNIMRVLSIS

## C[C@H](N)C(=O)O [alanine]
hLPYK [1]
  pKd: 3.60

## O=P(O)(O)OC[C@H]1OC(O)(COP(=O)(O)O)[C@@H](O)[C@@H]1O (stereo partly drawn) [fructose-1,6-bisphosphate]
hLPYK [2]
  Kix-FBP: (iii) Kix-FBP, the binding of Fru-1,6-BP

## O=C(O)CCC(=O)O [succinate]
rM1PYK
  X-ray crystal structure, 2.2 Å: active sites are populated by either a phosphonate analogue of PEP or succinate

From publication PMC10176505, “PYK-SubstitutionOME: an integrated database containing allosteric coupling, ligand affinity and mutational, structural, pathological, bioinformatic and computational information about pyruvate kinase isozymes” (Database: The Journal of Biological Databases and Curation, 2023)
